Measured values as given in article PMC8327158, “PEGylated AdipoRon derivatives improve glucose and lipid metabolism under insulinopenic and high-fat diet conditions” (Journal of Lipid Research, 2021).

Experiments:
HFD-fed wild-type mice = test: Food intake, body weight, ITT and OGTT in mice on HFD for 7 months; type: in vivo, mouse; conditions: HFD 7 months, 5 mg/kg twice a day for 5 days
Description: (§1) For oral glucose tolerance test (OGTT), mice were fasted for 4–6 h and subjected to an oral gavage of dextrose (2 mg/g body weight). Tail blood was collected at 0, 15, 30, 60, and 120 min and prepared for serum and assayed for glucose and insulin. For insulin tolerance test (ITT), insulin (0.75 U/kg Humulin R; Eli Lilly, Indianapolis, IN) was administered under fed condition. Serum glucose level was measured at 0, 15, 30, 60, and 90 min time point. Triglyceride tolerance test (TGTT) was initiated by oral gavage of 20% Intralipid (10 μl/g BDW, l141-100 ml, Sigma), and serum was collected at 0, 1, 1.5, 3, and 6 h for triglyceride assay. Glucose, insulin, and triacylglyceride levels were measured using an oxidase-peroxidase assay (Sigma P7119), insulin ELISA (Crystal Chem, Elk Grove village, IL, #15596018), and Infinity Triglycerides Reagent (Thermo Fisher Scientific TR22421).
(§2) Six-week-old wild-type male mice were fed HFD for 4 weeks or 7 months In total, 5 mg/Kg of PBS, Adiporon, AdipoRonPEG5, AdipoRonPEG6HTL were injected twice a day for 5 days. After 5 days of treatment, systemic test is performed, and serum (Before and after treatment), subcutaneous, epididymal, liver, heart samples were harvested for qPCR and sphingolipid analysis.

wild-type mice = test: Cold exposure (4°C): body temperature, scWAT histology, qPCR; type: in vivo, mouse
Description: In total, 5 mg/Kg of PBS and AdipoRonPEG5 were injected twice a day for 5 days at room temperature followed by housing in the cold chamber (4°C) for 7 days. Body temperature was measured at 0, 1, 2, 3, 4, and 5 h time point at the first day of cold exposure. In total, 5 mg/Kg of PBS and AdipoRonPEG5 were injected once a day for 7 days after cold exposure followed by harvesting tissues for qPCR analysis.

INS-1 β-cells = test: Palmitate-induced cell death protection assay (PI fluorescence plate reader); type: cell-based, rat; conditions: PA 0.25 mM, 24 h
Description: A 7.1 mM palmitic acid stock solution was prepared in 95% ethanol by incubating at 37°C. In parallel, 2% fatty-acid-free BSA was solubilized in sterile nanopure water at 37°C. The palmitic acid/BSA complex solution was then prepared by incubating the components in a molar ratio of 5:1 at 37°C in a shaking water bath for 1 h and was used directly for INS-1 stimulation experiments. Control cultures were carried out in the presence of BSA/ethanol in RPMI without palmitic acid.
Quantification of β-cell death by PI staining was carried out on a fluorescence plate reader. Following a 2 h preincubation under serum-free conditions, INS-1 cells (60k cells/well, 96-well plate (COSTAR ref # 3603)) were kept for 24 h in Phenol Red-free FBS-free RPMI 0.5% BSA as a control or containing 0.25 mM PA-BSA in the presence or absence of treatment. Cells were stained for 10 min at 4°C with propidium iodide (PI) at 1 μg/ml (added to the existing media to avoid loss of dead cells). PI fluorescence intensity was measured with a plate reader (PHERAstar, BMG Labtech).

STZ-treated Adn−/− mice = test: OGTT and triglyceride tolerance test in STZ-treated adiponectin knockout mice; type: in vivo, mouse
Description: as §1
Streptozotocin (STZ; Sigma S1030) was dissolved by 0.05 M citrate buffer (final; 20 mg/ml). Following 6 h fasting, mice received a single intraperitoneal injection of streptozotocin (200 mg/kg) to induce insulinopenic conditions.

HFD-fed mice = test: qPCR gene expression in pancreas, BAT and scWAT of HFD mice; type: in vivo, mouse
Description: Total RNA was extracted with the RNeasy Mini kit (Qiagen #74106) for the pancreas or Trizol (Invitrogen #15596018) for the liver and adipose tissue. cDNA was synthesized with iScript cDNA Synthesis Kit (Bio-Rad #170-8891). Quantitative real-time PCR (qPCR) was performed with the Powerup SYBR Green PCR master mix (Applied Biosystems # A25742) on Quantistudio 6 Flex Real-Time PCR System (Applied Biosystems #4485694). Primer sequences for qPCR are listed in supplemental Table S2.
as §2

[1] = design: method as in PMID 24172895; conditions: oral administration at 50 mg kg−1 body weight; cited from earlier work

Structure (SMILES)	blood glucose levels in ITT (HFD-fed wild-type mice)	blood glucose levels in OGTT (HFD-fed wild-type mice)	blood insulin levels in OGTT (HFD-fed wild-type mice)	food intake or body weight (HFD-fed wild-type mice)	subcutaneous adipose tissue histology after cold exposure (wild-type mice; 5 mg/kg, 4°C)	body temperature after acute cold exposure (wild-type mice; 5 mg/kg, 5 days treatment, 4°C)	T-cadherin (CDH13) expression (wild-type mice; scWAT and BAT after cold exposure, qPCR)	reduction of PA-induced apoptosis (INS-1 β-cells; 20 μM) [%]	protective activity against PA-induced cell death (INS-1 β-cells; dose range)	blood TG levels in triglyceride tolerance test (STZ-treated Adn−/− mice)	glucose levels in OGTT (STZ-treated Adn−/− mice)	Cpt-1a expression (HFD-fed mice; BAT)	Prdm16 expression (HFD-fed mice; BAT)	fibrosis-related genes (Col1a1, Col3a1, Fn1) and Tgfb1 (HFD-fed mice; subcutaneous adipose tissue)	genes maintaining the functional state of pancreatic β-cells (HFD-fed mice; whole pancreas lysate)	maximal plasma concentration [1] [µM]	protection from PA-induced cell death (INS-1 β-cells; 20 μM)
O=C(COc1ccc(C(=O)c2ccccc2)cc1)NC1CCN(Cc2ccc(OCCOCCOCCOCCOCCO)cc2)CC1 [AdipoRonPEG5]	significant reduction	not altered	reduction of blood insulin levels	no significant impact	resembling beige adipocytes	significantly higher body temperature	upregulated expression	~50	potent antiapoptotic activity	not altered	improved the glucose levels	increased expression	significant upregulation	lowered	did not detect a significant upregulation		
O=C(COc1ccc(C(=O)c2ccccc2)cc1)NC1CCN(Cc2ccccc2)CC1 [AdipoRon]																11.8	further modest increase in protection
